US20030224416A1, “Schizophrenia related gene” (priority 2002, published 2003)

Test system: Kv3.1 α-subunit mRNA
Assay: Experiment 1: in situ hybridization of Kv3.1 α-subunit mRNA in brain, chronic PCP rat model of schizophrenia with antipsychotic co-treatment
Format: in vivo

## Cc1cc2c(s1)Nc1ccccc1N=C2N1CCN(C)CC1 [Olanzapine, olanzapine]
ACg, PCP + drug 0.3 mg/kg/day
  Kv3.1 α-subunit mRNA expression: 15.83 ± 0.73 PSL/mm^2
ACg, PCP + drug 1 mg/kg/day
  Kv3.1 α-subunit mRNA expression: 14.83 ± 1.00 PSL/mm^2
ACg, PCP + drug 3 mg/kg/day
  Kv3.1 α-subunit mRNA expression: 16.31 ± 0.40 PSL/mm^2
ACg, PCP + drug 10 mg/kg/day
  Kv3.1 α-subunit mRNA expression: 15.03 ± 0.72 PSL/mm^2
AcbC, PCP + drug 0.3 mg/kg/day
  Kv3.1 α-subunit mRNA expression: 8.59 ± 0.58 PSL/mm^2
AcbC, PCP + drug 1 mg/kg/day
  Kv3.1 α-subunit mRNA expression: 8.12 ± 0.67 PSL/mm^2
AcbC, PCP + drug 3 mg/kg/day
  Kv3.1 α-subunit mRNA expression: 8.55 ± 0.25 PSL/mm^2
AcbC, PCP + drug 10 mg/kg/day
  Kv3.1 α-subunit mRNA expression: 8.27 ± 0.31 PSL/mm^2
AcbS, PCP + drug 0.3 mg/kg/day
  Kv3.1 α-subunit mRNA expression: 11.42 ± 0.73 PSL/mm^2
AcbS, PCP + drug 1 mg/kg/day
  Kv3.1 α-subunit mRNA expression: 10.43 ± 0.56 PSL/mm^2
AcbS, PCP + drug 3 mg/kg/day
  Kv3.1 α-subunit mRNA expression: 11.62 ± 0.84 PSL/mm^2
AcbS, PCP + drug 10 mg/kg/day
  Kv3.1 α-subunit mRNA expression: 11.95 ± 1.02 PSL/mm^2
Au1, PCP + drug 0.3 mg/kg/day
  Kv3.1 α-subunit mRNA expression: 18.60 ± 1.75 PSL/mm^2
Au1, PCP + drug 1 mg/kg/day
  Kv3.1 α-subunit mRNA expression: 18.68 ± 0.80 PSL/mm^2
Au1, PCP + drug 3 mg/kg/day
  Kv3.1 α-subunit mRNA expression: 17.42 ± 1.46 PSL/mm^2
Au1, PCP + drug 10 mg/kg/day
  Kv3.1 α-subunit mRNA expression: 16.91 ± 0.86 PSL/mm^2
CA1pd, PCP + drug 0.3 mg/kg/day
  Kv3.1 α-subunit mRNA expression: 19.98 ± 1.59 PSL/mm^2
CA1pd, PCP + drug 1 mg/kg/day
  Kv3.1 α-subunit mRNA expression: 19.14 ± 2.06 PSL/mm^2
CA1pd, PCP + drug 3 mg/kg/day
  Kv3.1 α-subunit mRNA expression: 18.37 ± 1.54 PSL/mm^2
CA1pd, PCP + drug 10 mg/kg/day
  Kv3.1 α-subunit mRNA expression: 20.15 ± 1.22 PSL/mm^2
CA2pd, PCP + drug 0.3 mg/kg/day
  Kv3.1 α-subunit mRNA expression: 21.36 ± 2.52 PSL/mm^2
CA2pd, PCP + drug 1 mg/kg/day
  Kv3.1 α-subunit mRNA expression: 17.72 ± 1.86 PSL/mm^2
CA2pd, PCP + drug 10 mg/kg/day
  Kv3.1 α-subunit mRNA expression: 20.59 ± 1.35 PSL/mm^2
CA3pd, PCP + drug 0.3 mg/kg/day
  Kv3.1 α-subunit mRNA expression: 33.71 ± 3.48 PSL/mm^2
CA3pd, PCP + drug 1 mg/kg/day
  Kv3.1 α-subunit mRNA expression: 30.50 ± 1.94 PSL/mm^2
CA3pd, PCP + drug 3 mg/kg/day
  Kv3.1 α-subunit mRNA expression: 33.46 ± 2.04 PSL/mm^2
CA3pd, PCP + drug 10 mg/kg/day
  Kv3.1 α-subunit mRNA expression: 32.81 ± 1.82 PSL/mm^2
DGgd, PCP + drug 0.3 mg/kg/day
  Kv3.1 α-subunit mRNA expression: 35.22 ± 1.16 PSL/mm^2
DGgd, PCP + drug 1 mg/kg/day
  Kv3.1 α-subunit mRNA expression: 33.04 PSL/mm^2
DGgd, PCP + drug 3 mg/kg/day
  Kv3.1 α-subunit mRNA expression: 36.51 ± 1.07 PSL/mm^2
DGgd, PCP + drug 10 mg/kg/day
  Kv3.1 α-subunit mRNA expression: 38.16 ± 1.10 PSL/mm^2
IL, PCP + drug 0.3 mg/kg/day
  Kv3.1 α-subunit mRNA expression: 12.00 ± 0.65 PSL/mm^2
IL, PCP + drug 1 mg/kg/day
  Kv3.1 α-subunit mRNA expression: 11.27 ± 1.08 PSL/mm^2
IL, PCP + drug 3 mg/kg/day
  Kv3.1 α-subunit mRNA expression: 11.40 ± 0.41 PSL/mm^2
IL, PCP + drug 10 mg/kg/day
  Kv3.1 α-subunit mRNA expression: 12.15 ± 0.62 PSL/mm^2
IO, PCP + drug 0.3 mg/kg/day
  Kv3.1 α-subunit mRNA expression: 15.50 ± 0.51 PSL/mm^2
IO, PCP + drug 1 mg/kg/day
  Kv3.1 α-subunit mRNA expression: 16.18 ± 0.32 PSL/mm^2
IO, PCP + drug 3 mg/kg/day
  Kv3.1 α-subunit mRNA expression: 16.83 ± 0.79 PSL/mm^2
IO, PCP + drug 10 mg/kg/day
  Kv3.1 α-subunit mRNA expression: 17.74 ± 0.37 PSL/mm^2
M1, PCP + drug 0.3 mg/kg/day
  Kv3.1 α-subunit mRNA expression: 15.83 ± 0.69 PSL/mm^2
M1, PCP + drug 1 mg/kg/day
  Kv3.1 α-subunit mRNA expression: 16.17 ± 1.27 PSL/mm^2
M1, PCP + drug 3 mg/kg/day
  Kv3.1 α-subunit mRNA expression: 16.17 ± 0.79 PSL/mm^2
M1, PCP + drug 10 mg/kg/day
  Kv3.1 α-subunit mRNA expression: 16.27 ± 0.37 PSL/mm^2
M2, PCP + drug 3 mg/kg/day
  Kv3.1 α-subunit mRNA expression: 14.48 ± 0.90 PSL/mm^2
MG, PCP + drug 0.3 mg/kg/day
  Kv3.1 α-subunit mRNA expression: 26.64 ± 2.22 PSL/mm^2
MM, PCP + drug 10 mg/kg/day
  Kv3.1 α-subunit mRNA expression: 4.69 ± 2.24 PSL/mm^2
Pir, PCP + drug 0.3 mg/kg/day
  Kv3.1 α-subunit mRNA expression: 37.73 ± 1.18 PSL/mm^2
Pir, PCP + drug 1 mg/kg/day
  Kv3.1 α-subunit mRNA expression: 36.82 ± 0.51 PSL/mm^2
Pir, PCP + drug 3 mg/kg/day
  Kv3.1 α-subunit mRNA expression: 43.78 ± 1.20 PSL/mm^2
Pir, PCP + drug 10 mg/kg/day
  Kv3.1 α-subunit mRNA expression: 40.66 ± 2.21 PSL/mm^2
RSa, PCP + drug 0.3 mg/kg/day
  Kv3.1 α-subunit mRNA expression: 16.53 ± 1.13 PSL/mm^2
RSa, PCP + drug 1 mg/kg/day
  Kv3.1 α-subunit mRNA expression: 16.92 ± 0.74 PSL/mm^2
RSa, PCP + drug 3 mg/kg/day
  Kv3.1 α-subunit mRNA expression: 18.21 ± 1.15 PSL/mm^2
RSa, PCP + drug 10 mg/kg/day
  Kv3.1 α-subunit mRNA expression: 18.77 ± 1.07 PSL/mm^2
RSg, PCP + drug 0.3 mg/kg/day
  Kv3.1 α-subunit mRNA expression: 19.48 ± 0.72 PSL/mm^2
RSg, PCP + drug 1 mg/kg/day
  Kv3.1 α-subunit mRNA expression: 19.43 ± 1.20 PSL/mm^2
RSg, PCP + drug 3 mg/kg/day
  Kv3.1 α-subunit mRNA expression: 20.96 ± 1.08 PSL/mm^2
RSg, PCP + drug 10 mg/kg/day
  Kv3.1 α-subunit mRNA expression: 19.59 ± 0.92 PSL/mm^2
VMStr, PCP + drug 3 mg/kg/day
  Kv3.1 α-subunit mRNA expression: 7.52 PSL/mm^2
VMStr, PCP + drug 10 mg/kg/day
  Kv3.1 α-subunit mRNA expression: 5.99 ± 0.28 PSL/mm^2
VO, PCP + drug 0.3 mg/kg/day
  Kv3.1 α-subunit mRNA expression: 19.03 ± 1.00 PSL/mm^2
VO, PCP + drug 1 mg/kg/day
  Kv3.1 α-subunit mRNA expression: 18.35 ± 1.04 PSL/mm^2
VO, PCP + drug 3 mg/kg/day
  Kv3.1 α-subunit mRNA expression: 18.96 ± 0.86 PSL/mm^2
VO, PCP + drug 10 mg/kg/day
  Kv3.1 α-subunit mRNA expression: 19.88 ± 0.58 PSL/mm^2
dRt, PCP + drug 0.3 mg/kg/day
  Kv3.1 α-subunit mRNA expression: 50.99 ± 2.22 PSL/mm^2
dRt, PCP + drug 1 mg/kg/day
  Kv3.1 α-subunit mRNA expression: 50.92 ± 3.80 PSL/mm^2
dRt, PCP + drug 3 mg/kg/day
  Kv3.1 α-subunit mRNA expression: 52.87 ± 1.95 PSL/mm^2
dRt, PCP + drug 10 mg/kg/day
  Kv3.1 α-subunit mRNA expression: 52.42 ± 1.19 PSL/mm^2
vRt, PCP + drug 0.3 mg/kg/day
  Kv3.1 α-subunit mRNA expression: 54.57 ± 3.12 PSL/mm^2
vRt, PCP + drug 1 mg/kg/day
  Kv3.1 α-subunit mRNA expression: 46.70 ± 3.99 PSL/mm^2
vRt, PCP + drug 3 mg/kg/day
  Kv3.1 α-subunit mRNA expression: 42.97 ± 2.22 PSL/mm^2
vRt, PCP + drug 10 mg/kg/day
  Kv3.1 α-subunit mRNA expression: 53.69 ± 2.07 PSL/mm^2
